Patent publication US5081126A, “Quinolyl- and isoquinolyl-methoxyphenyl-dithioacetyl derivatives useful as antiinflammatory agents” (Fujisawa Pharmaceutical Co., Ltd., priority 1987, dated 1992)
Counter-ions that a name gives are not always drawn.

Tested on: SRS-A (Slow Reacting Substance of Anaphylaxis) synthesis in rat polymorpholeukocyte (PMN)
Assay: Inhibiting activity of SRS-A (Slow Reacting Substance of Anaphylaxis) synthesis in rat polymorpholeukocyte (PMN) using the calcium ionophore; i-LTC4 by radioimmunoassay
Assay type: cell-based
Conditions: 0.25 h, 10 μM A23187, 15 min at 37° C., i-LTC4 readout
Description: Test : Inhibiting activity of SRS-A (Slow Reacting Substance of Anaphylaxis) synthesis in rat polymorpholeukocyte (PMN) of using the calcium ionophore
Preparation of PMN from rat
Male Spraque-Dawley rats weighing 250-300 g were anesthetized with ether and each was injected intraperitoneally with 20 ml of 0.1% glycogen (from Oyster). After 20 hours the rats were sacrificed and PMN were recovered in rinse of the peritoneal cavity with 10 ml Dulbeccos PBS (components in G/L : CaCl 0.1, KH2 PO4 0.2, MgCl2.6H2 O 0.1, NaCl 8.0, Na2 HPO4.7H2 O 2.16; pH 7.4). These rinses were filtered through nylon wool filter and centrifuged for 5 min at 1000 xg. The pellet was suspended in Dulbeccos PBS and centrifuged for 5 min at 1000 xg. The pellet was resuspended in Dulbeccos PBS and adjusted the cell concentration to 10^7 cells/ml with Dulbeccos PBS.
Samples were dissolved in ethanol and dispersed in Dulbeccos PBS to give a concentration of 10^-8 to 10^-3 M. Antibiotic A23187; calcium ionophor (Dehring Diagnostics; (hereinafter referred to A23187) in DMSO (10mM) was diluted with Dulbeccos PBS tc give the concentration of 1 mM. Aliquots of the cell suspension (1×10^7 cells/ml, 0.98 ml) were equilibrated for 30 min at 37° C. Solution of sample(10 ul) was added and incubated for 15 min at 37° C. before the addition of 10 μl of A23187 solution. Thus the final incubation volume of 1 ml contained approximately 1×10^7 cells, 10^-10 to […] M samples and 10 μM A23187. Incubation with A23187 were continued for 15 min at 37° C. The reactions were terminated by setting the assay tubes in ice bath to chill as rapidly as possible to 4° C. The test tubes were centrifuged at 1500 xg for 5 min at 4° C. and decanted the supernatants into the tubes and kept cold prior to assaying.
Determination of immunoreactive LTC4 (i-LTC4)
The concentration of i-LTC4 in the cell-free supernatants from the incubations were determined by specific radioimmunoassay. The mean values of i-LTC4 (these incubations were carried out in duplicate) of each sample were calculated and the effect of samples on the synthesis of the leukotrienes was presented as a percentage of the value in the absence of samples.

Row | SMILES | IC50 [nM]
1 | CCCSC(SCCC)c1cccc(OCc2ccccn2)c1 [Example 2, 2-[[[3-Bis(propylthio)methyl]phenoxy]methyl]pyridine hydrochloride] | 520
2 | CCSC(SCC)c1cccc(OCc2ccc3ccccc3n2)c1 [Example 6, 2-[[[3-Bis(ethylthio)methyl]phenoxy]methyl]quinoline hydrochloride] | 130
3 | c1ccc(SC(Sc2ccccc2)c2cccc(OCc3ccc4ccccc4n3)c2)cc1 [Example 10, 2-[[[3-Bis(phenylthio)methyl]phenoxy]methyl]quinoline hydrochloride] | 1100
4 | CCCSC(SCCC)c1cccc(OCc2ccc3ccccc3n2)c1 [Example 3, 2-[[[3-bis(propylthio)methyl]phenoxy]methyl]quinoline hydrochloride] | 39
5 | CCCCCSC(SCCCCC)c1cccc(OCc2ccc3ccccc3n2)c1 [Example 8, 2-[[[3-Bis(pentylthio)methyl]phenoxy]methyl]quinoline hydrochloride] | 330
6 | CCCSC(SCCC)c1ccc(OCc2ccc3ccccc3n2)cc1 [Example 5, 2-[[[4-Bis(propylthio)methyl]phenoxy]methyl]quinoline hydrochloride] | 110
7 | CC(C)SC(SC(C)C)c1cccc(OCc2ccc3ccccc3n2)c1 [Example 9, 2-[[[3-Bis(isopropylthio)methyl]phenoxy]methyl]quinoline hydrochloride] | 100
8 | CCCCSC(SCCCC)c1cccc(OCc2ccc3ccccc3n2)c1 [Example 7, 2-[[[3-Bis(butylthio)methyl]phenoxy]methyl]quinoline hydrochloride] | 160
9 | CC(C)SC(SC(C)C)c1cccc(OCc2nc3ccccc3s2)c1 [Example 16, 2-[[[3-Bis(isopropylthio)methyl]phenoxy]methyl]benzothiazole] | 110
10 | c1ccc(CSC(SCc2ccccc2)c2cccc(OCc3ccc4ccccc4n3)c2)cc1 [Example 11, 2-[[[3-Bis(benzylthio)methyl]phenoxy]methyl]quinoline] | 1400
11 | CCCSC(SCCC)c1cccc(OCc2nc3ccccc3s2)c1 [Example 1, 2-[[[3-bis(propylthio)methyl]phenoxy]methyl]benzothiazole] | 300
12 | CCCSC(SCCC)c1cccc(OCc2ncc3ccccc3n2)c1 [Example 22, 2-[[[3-Bis(propylthio)methyl]phenoxy]methyl]quinazoline hydrochloride] | 850
